SMILES strings stand for the structures. “And” between values parts separate entries of the source, which are not always exact repeats. Equal values may be shown once. A value given as a limit tells only on which side of the number the result lay.

Results on five compounds are retold here after PubChem BioAssay AID1963448 (Molecular Pharmacology Branch, DTP, NCI, 2024).

The test system of the test is 616215-338-R-J1-PDC complex spheroid growth, % test/control. Put plainly: Anticancer human tumor 616215-338-R-J1-PDC patient-derived colon adenocarcinoma cell line growth inhibition [Asc]. Particulars: for viability, T/C: stronger effect = lower value. In short, it runs like this: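 Complex spheroids combining tumor cells with HUVEC endothelial cells and human MSCs, at 37 degrees C, 5% CO2; agents tested alone or combined, half-log dilutions from at or near clinical Cmax, or 10 microM if Cmax unknown.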

Setting [1] is: curve of first compound, second compound 0.1 µM.
The mark [2] stands for this setting: curve of first compound, second compound 0.316 µM.
The mark [3] stands for this setting: curve of first compound, second compound 1 µM.
Where [4] appears, read: second compound 0.1 µM, first compound 0.0316 µM.
[5] abbreviates: second compound 0.1 µM, first compound 0.1 µM.
[6] abbreviates: second compound 0.316 µM, first compound 0.0316 µM.
The mark [7] stands for this setting: second compound 0.316 µM, first compound 0.1 µM.
The mark [8] stands for this setting: second compound 1 µM, first compound 0.0316 µM.
Where [9] appears, read: second compound 1 µM, first compound 0.1 µM.
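Note: spheroids exposed to agents for seven days before readout.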
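Throughout, for viability, T/C: 100% = DMSO vehicle control viability.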

Usually IC50 stands for the concentration at which inhibition is half-maximal. Broadly, the viability, T/C is the ratio of treated to control. In the case of `Cn1ncnc1[C@H]1c2n[nH]c(=O)c3cc(F)cc(c23)N[C@@H]1c1ccc(F)cc1` + CNC(C)C(=O)NC1CN(S(=O)(=O)c2cccc(S(=O)(=O)N3CCC4CCC(C(=O)NC(c5ccccc5)c5ccccc5)N4C(=O)C(NC(=O)C(C)NC)C3)c2)CCC2CCC(C(=O)NC(c3ccccc3)c3ccccc3)N2C1=O, the half-inhibitory concentration (IC50) by setting is: (curve of first compound, second compound 0.00316 µM) less than 0.316 nM; (curve of first compound, second compound 0.01 µM) greater than 100 nM; (curve of first compound, second compound 0.0316 µM) greater than 100 nM; under setting [1], greater than 100 nM; under setting [2], greater than 100 nM; under setting [3], greater than 100 nM. Also, the viability, T/C was 10.7% (second compound 0.00316 µM, first compound 0.000316 µM); 10.5% (second compound 0.00316 µM, first compound 0.001 µM); 7.58% (second compound 0.00316 µM, first compound 0.00316 µM); 9.25% (second compound 0.00316 µM, first compound 0.01 µM); 9.45% (second compound 0.00316 µM, first compound 0.0316 µM); 8.48% (second compound 0.00316 µM, first compound 0.1 µM). The viability, T/C by setting is: (second compound 0.01 µM, first compound 0.000316 µM) 95%; (second compound 0.01 µM, first compound 0.001 µM) 101%; (second compound 0.01 µM, first compound 0.00316 µM) 97.2%; (second compound 0.01 µM, first compound 0.01 µM) 92.4%; (second compound 0.01 µM, first compound 0.0316 µM) 95.1%; (second compound 0.01 µM, first compound 0.1 µM) 98.5%. Moreover, the viability, T/C runs as follows: (second compound 0.0316 µM, first compound 0.000316 µM) 91.5%; (second compound 0.0316 µM, first compound 0.001 µM) 95.5%; (second compound 0.0316 µM, first compound 0.00316 µM) 101%; (second compound 0.0316 µM, first compound 0.01 µM) 102%; (second compound 0.0316 µM, first compound 0.0316 µM) 100%; (second compound 0.0316 µM, first compound 0.1 µM) 110%. In addition, the viability, T/C runs as follows: (second compound 0.1 µM, first compound 0.000316 µM) 106%; (second compound 0.1 µM, first compound 0.001 µM) 108%; (second compound 0.1 µM, first compound 0.00316 µM) 103%; (second compound 0.1 µM, first compound 0.01 µM) 108%; under setting [4], 102%; under setting [5], 103%. The viability, T/C reads like this: (second compound 0.316 µM, first compound 0.000316 µM) 97.6%; (second compound 0.316 µM, first compound 0.001 µM) 104%; (second compound 0.316 µM, first compound 0.00316 µM) 102%; (second compound 0.316 µM, first compound 0.01 µM) 104%; under setting [6], 102%; under setting [7], 98.4%. Also, the viability, T/C (second compound 1 µM, first compound 0.000316 µM) was 107%; the viability, T/C (second compound 1 µM, first compound 0.001 µM) is 99.2%; the viability, T/C (second compound 1 µM, first compound 0.00316 µM) is 97.2%; the viability, T/C (second compound 1 µM, first compound 0.01 µM) was 99.2%; the viability, T/C under setting [8] is 96%; the viability, T/C under setting [9] is 101%.
With `NC1CCC(NC2CC2c2ccccc2)CC1` (stereo not given), the viability, T/C by setting is: (compound 0.000316 µM) 96.5% and 100% and 109%; (compound 0.001 µM) 102% (2×) and 97.4%; (compound 0.00316 µM) 90.4% and 95.5% and 101%; (compound 0.01 µM) 92.3% and 96.8% and 93.5%; (compound 0.0316 µM) 91.6% and 91.8% and 99.5%; (compound 0.1 µM) 92.8% and 94.4% and 97.4%. Moreover, the IC50 (curve of compound) is greater than 100 nM.
For the compound `CNC(C)C(=O)NC1CN(S(=O)(=O)c2cccc(S(=O)(=O)N3CCC4CCC(C(=O)NC(c5ccccc5)c5ccccc5)N4C(=O)C(NC(=O)C(C)NC)C3)c2)CCC2CCC(C(=O)NC(c3ccccc3)c3ccccc3)N2C1=O` (stereo not given), the viability, T/C (compound 0.01 µM) was 105% [middle of 9 runs]; the viability, T/C (compound 0.1 µM) was 101% [middle of 9 runs]; the viability, T/C (compound 0.316 µM) is 102% [middle of 9 runs]; the viability, T/C (compound 1 µM) was 101% [middle of 9 runs]. For the same compound, for the setting “curve of compound”, the 50% inhibitory concentration (IC50) is greater than 1000 nM.
Consider `Cc1c(S(C)(=O)=O)c(-c2cc(F)cc(N3CCN(c4ccc(NS(=O)(=O)c5ccc(NC(CCN6CCC(C(=O)OCCCP(=O)(O)O)CC6)CSc6ccccc6)c(S(=O)(=O)C(F)(F)F)c5)cc4)CC3)c2)c(-c2ccc(Cl)cc2)n1C(C)C` (stereo not given), for which the viability, T/C is 89.8% [middle of 14 runs] (compound 0.1 µM); 88.1% [middle of 14 runs] (compound 0.316 µM); 69.6% [middle of 14 runs] (compound 1 µM); 38% [middle of 13 runs] (compound 3.16 µM); 27.6% [middle of 14 runs] (compound 10 µM). In addition, under “compound alone, run of 10/11/2022”, the IC50 was 1.96 µM [middle of 13 runs].
As to `O=C(c1cc(Cc2n[nH]c(=O)c3ccccc23)ccc1F)N1CCN(C(=O)C2CC2)CC1` + Cc1c(S(C)(=O)=O)c(-c2cc(F)cc(N3CCN(c4ccc(NS(=O)(=O)c5ccc(NC(CCN6CCC(C(=O)OCCCP(=O)(O)O)CC6)CSc6ccccc6)c(S(=O)(=O)C(F)(F)F)c5)cc4)CC3)c2)c(-c2ccc(Cl)cc2)n1C(C)C, the IC50 runs as follows: under setting [1], greater than 10000 nM; under setting [2], 6750 nM; under setting [3], 755 nM; (curve of first compound, second compound 3.16 µM) less than 31.6 nM; (curve of first compound, second compound 10 µM) less than 31.6 nM. Further, the viability, T/C under setting [4] is 95.5%; the viability, T/C under setting [5] is 96%; the viability, T/C (second compound 0.1 µM, first compound 0.316 µM) was 92.5%; the viability, T/C (second compound 0.1 µM, first compound 1 µM) was 92%; the viability, T/C (second compound 0.1 µM, first compound 3.16 µM) is 89.1%; the viability, T/C (second compound 0.1 µM, first compound 10 µM) is 78.8%. The viability, T/C under setting [6] is 88.8%; the viability, T/C under setting [7] is 90%; the viability, T/C (second compound 0.316 µM, first compound 0.316 µM) was 85.4%; the viability, T/C (second compound 0.316 µM, first compound 1 µM) is 86.5%; the viability, T/C (second compound 0.316 µM, first compound 3.16 µM) is 66.6%; the viability, T/C (second compound 0.316 µM, first compound 10 µM) was 41.4%. Further, the viability, T/C was 72.7% under setting [8]; 67.6% under setting [9]; 59% (second compound 1 µM, first compound 0.316 µM); 49% (second compound 1 µM, first compound 1 µM); 26.3% (second compound 1 µM, first compound 3.16 µM); 10.9% (second compound 1 µM, first compound 10 µM). Further, the viability, T/C is 34% (second compound 3.16 µM, first compound 0.0316 µM); 30.4% (second compound 3.16 µM, first compound 0.1 µM); 25.3% (second compound 3.16 µM, first compound 0.316 µM); 17.2% (second compound 3.16 µM, first compound 1 µM); 3.59% (second compound 3.16 µM, first compound 3.16 µM); 2.49% (second compound 3.16 µM, first compound 10 µM). Besides, the viability, T/C reads like this: (second compound 10 µM, first compound 0.0316 µM) 20.7%; (second compound 10 µM, first compound 0.1 µM) 18.4%; (second compound 10 µM, first compound 0.316 µM) 11.2%; (second compound 10 µM, first compound 1 µM) 3.83%; (second compound 10 µM, first compound 3.16 µM) 1.31%; (second compound 10 µM, first compound 10 µM) 1.84%.
